Non-standard residues stand in square brackets, D forms with d. No end group written: not given here. pT = C[C@@H](OP(=O)(O)O)[C@H](N)C(=O)O
Key:
[1] = target: Pin1-WW domain (WW50, Pin1 residues 1-50) (Homo sapiens, UniProt Q13526); assay: NMR titration of ^15N-WW50 with phosphate or HEPES; type: binding; settings: at 10 mM buffer anion and 1 mM WW domain, calculated from KD
[2] = system: Pin1-WW domain binding surface; assay: HSQC NMR of WW53 and mutants versus WW50
[3] = target: Pin1-WW domain construct WW50 (Pin1 residues 1-50) (UniProt Q13526 1-50, 15N-labelled (uniform) in the NMR titrations); assay: NMR titration
[4] = C-terminal mutants of WW53 compared with WW53 and WW50

| Molecule | WW domain bound to buffer anion [1] [%] | HSQC peak shifts of key binding surface residues versus WW53 [2, 4] | also measured |
| --- | --- | --- | --- |
| WW53 E51A: WW53 construct (Pin1 residues 1-53) with E51A mutation (MADEEKLPPGWEKRMSRSSGRVYYFNHITNASQWERPSGNSSSGGKNGQGAPA; residues 1-53 (WW domain); UniProt Q13526 1-53, looked up, variant E51A) |  | progressive peak shifts for key binding surface residues | HSQC peak shifts of key binding surface residues versus WW53 ([2]; C-terminal mutants of WW53 compared with WW53 and WW50, listed as E51A): progressively shifted some key binding surface peaks toward their WW50 positions |
| WW53 E51A/P52A: WW53 construct (Pin1 residues 1-53) with E51A/P52A mutations (MADEEKLPPGWEKRMSRSSGRVYYFNHITNASQWERPSGNSSSGGKNGQGAAA; residues 1-53 (WW domain); UniProt Q13526 1-53, looked up, variant E51A P52A) |  | progressive peak shifts for key binding surface residues |  |
| GVVEVDAAV[pT]PEERHLSKMQQNGY (peptide, UniProt P05067-4 659-682, looked up) [phosphopeptide representing APP residues 659-682 phosphorylated at T668 (pAPP659-682)] |  |  | koff [3]: 2040 s⁻¹; kon [3]: 9.1e+07 M⁻¹ s⁻¹ |

The next lines start with results.

| WW domain bound to buffer anion [1] [%] | Molecule | HSQC peak shifts of key binding surface residues versus WW53 [2, 4] | also measured |
| --- | --- | --- | --- |
| 6 | O=S(=O)(O)CCN1CCN(CCO)CC1 [HEPES] |  |  |
| 15 | O=P(O)(O)O [phosphate, sodium phosphate] |  |  |

— PMC3548994 (Biochemistry, 2012)
